Assay results reported in BindingDB's records for doi:10.1021/bi00419a019 (University of Wisconsin, 1988).

Molecular target: T1, Aminopeptidase B (Mus musculus, UniProt Q8VCT3)
T1 sequence (Q8VCT3 whole entry): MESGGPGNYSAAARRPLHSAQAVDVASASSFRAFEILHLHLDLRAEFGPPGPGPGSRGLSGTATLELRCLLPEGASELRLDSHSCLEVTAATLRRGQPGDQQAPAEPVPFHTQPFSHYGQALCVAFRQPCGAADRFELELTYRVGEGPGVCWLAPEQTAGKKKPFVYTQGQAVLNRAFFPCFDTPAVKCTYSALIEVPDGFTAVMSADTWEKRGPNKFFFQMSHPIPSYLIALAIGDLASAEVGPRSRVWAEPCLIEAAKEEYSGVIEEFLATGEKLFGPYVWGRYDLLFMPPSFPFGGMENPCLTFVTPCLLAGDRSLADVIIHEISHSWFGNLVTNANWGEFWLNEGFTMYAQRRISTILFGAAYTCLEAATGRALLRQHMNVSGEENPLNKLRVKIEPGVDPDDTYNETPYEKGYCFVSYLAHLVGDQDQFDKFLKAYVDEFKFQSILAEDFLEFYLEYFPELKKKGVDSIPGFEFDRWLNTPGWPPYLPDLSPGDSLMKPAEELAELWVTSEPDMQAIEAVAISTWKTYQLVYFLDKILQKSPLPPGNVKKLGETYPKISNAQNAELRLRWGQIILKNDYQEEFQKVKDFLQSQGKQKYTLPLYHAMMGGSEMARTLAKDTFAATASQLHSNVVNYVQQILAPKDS

- IC50: 160 µM
Structure (SMILES): CC(C)C[C@H](NC(=O)[C@@H](O)[C@H](N)Cc1ccccc1)C(=O)O
